Earlier results as cited in patent publication US20220339295A1, “FULLERENE GALLIUM P[…] METHODS” (Exothule Inc., priority 2020, published 2022).

Columns and labels:
[1] = target: transferrin (Homo sapiens, UniProt P02787); settings: relative to Fe3+
transferrin, sequence (P02787 20-698, species assumed): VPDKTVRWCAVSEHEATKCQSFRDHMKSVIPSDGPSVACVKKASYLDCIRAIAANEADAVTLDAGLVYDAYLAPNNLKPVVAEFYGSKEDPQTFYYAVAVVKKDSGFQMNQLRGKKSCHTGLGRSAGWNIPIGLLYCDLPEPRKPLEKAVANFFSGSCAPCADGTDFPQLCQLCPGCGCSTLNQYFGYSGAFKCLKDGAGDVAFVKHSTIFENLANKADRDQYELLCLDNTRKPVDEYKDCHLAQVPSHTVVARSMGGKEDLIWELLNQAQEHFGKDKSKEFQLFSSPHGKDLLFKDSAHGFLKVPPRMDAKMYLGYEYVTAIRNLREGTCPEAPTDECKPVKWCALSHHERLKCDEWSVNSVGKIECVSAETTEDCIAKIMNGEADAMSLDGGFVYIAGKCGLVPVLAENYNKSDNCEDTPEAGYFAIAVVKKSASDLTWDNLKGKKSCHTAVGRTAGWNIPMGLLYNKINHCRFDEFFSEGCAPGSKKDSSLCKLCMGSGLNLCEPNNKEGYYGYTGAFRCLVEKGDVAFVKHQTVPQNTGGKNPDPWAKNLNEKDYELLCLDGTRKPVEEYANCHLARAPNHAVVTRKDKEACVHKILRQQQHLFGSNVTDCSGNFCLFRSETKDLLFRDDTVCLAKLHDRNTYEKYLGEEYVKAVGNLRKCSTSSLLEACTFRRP

SMILES: [Ga] [gallium]
- binding in transferrin, times less effectively than Fe3+ [1]: 300 times
- gallium excreted in urine (after 24 hours): 69%
- gallium excreted (in 48 hours): 91%
